Data on 29 molecules can be found in US20130261178A1, “PHENOXYPROPANOL DERIVATIVES AND THEIR USE IN TREATING CARDIAC AND CARDIOVASCULAR DISEASES” (priority 2010, published 2013).

One series deals with beta1-adrenoceptor (Homo sapiens, UniProt P08588). The series is described as follows: 3H-CGP12177 whole-cell binding, CHO cells expressing human beta1-adrenoceptor. More on the design: expressed in transfected cells; host or cells: CHO cells. As to conditions: 3H-CGP 12177 whole cell binding, mean ± s.e.mean; for Kd: log KD, read-out: Beta 1 Log KD (converted). The source says: (§1) The selectivity of a ligand is given by the ratio of beta-1 to beta-2 KD.
Chain of beta1-adrenoceptor (P08588 whole entry): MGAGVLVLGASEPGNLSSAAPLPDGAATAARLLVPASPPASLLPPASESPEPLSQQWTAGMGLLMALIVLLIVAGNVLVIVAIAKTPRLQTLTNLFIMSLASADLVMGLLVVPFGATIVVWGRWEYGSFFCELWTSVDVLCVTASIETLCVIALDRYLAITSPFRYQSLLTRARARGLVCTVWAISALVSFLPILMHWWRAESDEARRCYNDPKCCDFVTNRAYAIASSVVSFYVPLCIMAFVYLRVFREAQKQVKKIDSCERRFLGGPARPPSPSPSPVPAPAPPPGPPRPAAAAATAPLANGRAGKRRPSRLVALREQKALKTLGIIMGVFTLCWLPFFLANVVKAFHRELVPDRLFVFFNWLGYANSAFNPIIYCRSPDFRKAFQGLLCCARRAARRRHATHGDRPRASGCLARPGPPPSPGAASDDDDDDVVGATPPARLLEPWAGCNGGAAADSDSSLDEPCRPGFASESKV

Another series deals with T1, human beta3-adrenoceptor (Homo sapiens, UniProt P13945).
T1 construct: expressed in transfected cells; host or cells: CHO cells
T1 sequence (P13945 whole entry): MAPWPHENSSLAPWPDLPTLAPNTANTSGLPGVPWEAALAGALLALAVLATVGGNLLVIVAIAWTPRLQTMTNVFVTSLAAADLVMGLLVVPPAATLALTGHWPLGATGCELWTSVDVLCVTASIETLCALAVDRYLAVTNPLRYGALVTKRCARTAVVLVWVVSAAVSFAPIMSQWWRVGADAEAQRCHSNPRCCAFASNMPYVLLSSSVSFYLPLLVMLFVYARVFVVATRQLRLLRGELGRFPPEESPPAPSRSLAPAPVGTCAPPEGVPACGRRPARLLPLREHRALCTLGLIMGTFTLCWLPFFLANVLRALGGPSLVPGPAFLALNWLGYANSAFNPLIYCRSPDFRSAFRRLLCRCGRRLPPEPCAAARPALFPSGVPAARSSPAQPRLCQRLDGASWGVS
The series is described as follows: 3H-CGP12177 whole-cell binding, CHO cells expressing human beta3-adrenoceptor. As to conditions: 3H-CGP 12177 whole cell binding, mean ± s.e.mean; for Kd: log KD, read-out: Beta 3 Log KD (converted).

For the next series, the target named is T2, human beta2-adrenoceptor (Homo sapiens, UniProt P07550).
T2 construct: expressed in transfected cells; host or cells: CHO cells
T2 sequence (P07550 whole entry): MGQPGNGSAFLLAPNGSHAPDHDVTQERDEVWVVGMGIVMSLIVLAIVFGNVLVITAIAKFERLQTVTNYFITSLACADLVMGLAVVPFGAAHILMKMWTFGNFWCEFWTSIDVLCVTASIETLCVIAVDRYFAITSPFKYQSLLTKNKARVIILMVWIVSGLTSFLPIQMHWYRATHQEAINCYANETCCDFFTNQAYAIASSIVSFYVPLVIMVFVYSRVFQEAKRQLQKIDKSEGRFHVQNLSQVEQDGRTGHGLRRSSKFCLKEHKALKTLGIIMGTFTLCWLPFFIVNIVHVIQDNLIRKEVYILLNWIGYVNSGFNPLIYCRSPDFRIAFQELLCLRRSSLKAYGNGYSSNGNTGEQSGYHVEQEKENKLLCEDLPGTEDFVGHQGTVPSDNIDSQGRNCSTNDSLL
The series is described as follows: 3H-CGP12177 whole-cell binding, CHO cells expressing human beta2-adrenoceptor. The following applies: 3H-CGP 12177 whole cell binding, mean ± s.e.mean; for Kd: log KD, read-out: Beta 2 Log KD (converted).
Source text: as §1

For the molecule `O=C(NCCNCC(O)COc1ccc(OCCOCC2CC2)cc1)Nc1ccc(OCc2ccccc2)cc1` (stereo not drawn) [45a], the Kd is 0.0708 µM on beta1-adrenoceptor and 1.78 µM on human beta3-adrenoceptor.

As for `O=C(Nc1ccccc1)OCCNCC(O)COc1ccc(OCCOC2CCCC2)cc1` (stereo not drawn) [compound 51, 2-(3-(4-(2-(Cyclopentyloxy)ethoxy)phenoxy)-2-hydroxypropylamino)ethyl phenylcarbamate], the values for the Kd on beta1-adrenoceptor, on human beta2-adrenoceptor and on human beta3-adrenoceptor were 0.0295 µM, 0.468 µM and 1.05 µM, respectively.

With `CCOCCOc1ccc(OCC(O)CNCCNC(=O)Cc2cccc(O)c2)cc1` (stereo not drawn) [46h, N-(2-(3-(4-(2-ethoxyethoxy)phenoxy)-2-hydroxypropylamino)ethyl)-2-(3-hydroxyphenyl)acetamide], the Kd on beta1-adrenoceptor was 0.0447 µM; at human beta2-adrenoceptor, 0.257 µM; on human beta3-adrenoceptor, 9.33 µM.

For `CCOCCOc1ccc(OCC(O)CNCCNC(=O)Nc2cccc(Cl)c2)cc1` (stereo not drawn) [46f, 1-(2-(3-(4-(2-Ethoxyethoxy)phenoxy)-2-hydroxypropylamino)ethyl)-3-(3-chlorophenyl)urea hydroformate], the Kd at beta1-adrenoceptor is 0.0316 µM; at human beta2-adrenoceptor, 6.31 µM; on human beta3-adrenoceptor it was 7.24 µM.

With `CCOCCOc1ccc(OCC(O)CNCCNC(=O)Nc2ccc(O)cc2)cc1` (stereo not drawn) [46d], the melting point lay in the range of 96 to 98 °C. For the same molecule, on beta1-adrenoceptor, the Kd is 0.0832 µM. In addition, the dissociation constant Kd at human beta2-adrenoceptor is over 100 µM.

`Nc1cccc(C(=O)NCCNCC(O)COc2ccc(OCCOC3CCCC3)cc2)c1` (stereo not drawn) [62c] returned a melting point of 105 to 107.5 °C. Moreover, the Kd at beta1-adrenoceptor is 0.174 µM. Also, on human beta2-adrenoceptor, the Kd is 4.47 µM.

For `O=C(NCCNCC(O)COc1ccc(OCCOC2CCCC2)cc1)c1ccc(O)cc1` (stereo not drawn) [54f], the Kd on beta1-adrenoceptor was 0.00174 µM; at human beta2-adrenoceptor it was 0.162 µM; at human beta3-adrenoceptor it was 0.513 µM.

Consider `O=C(NCCNCC(O)COc1ccc(OCCOC2CCCC2)cc1)Nc1cccc(O)c1` (stereo not drawn) [47u, 1-(2-(3-(4-(2-(Cyclopentyloxy)ethoxy)phenoxy)-2-hydroxypropylamino)ethyl)-3-(3-hydroxyphenyl)urea], for which the “Beta 1 Log KD” value on beta1-adrenoceptor is listed as −7.89 ± 0.06. The “Beta 2 Log KD” value at human beta2-adrenoceptor is −5.85 ± 0.06. In addition, the Kd at human beta3-adrenoceptor is 6.92 µM.

For the molecule `O=C(Cc1ccccc1Cl)NCCNCC(O)COc1ccc(OCCOC2CCCC2)cc1` (stereo not drawn) [62j], the melting point lay in the range of 113.5 to 114.5 °C. Besides, the Kd at beta1-adrenoceptor was 0.00347 µM. In addition, on human beta2-adrenoceptor, the Kd is 0.0575 µM.

`O=C(Cc1ccc(Cl)cc1)NCCNCC(O)COc1ccc(OCCOC2CCCC2)cc1` (stereo not drawn) [62l] came in with a melting point of 107 to 109 °C. For the same molecule, the Kd at beta1-adrenoceptor is 0.00759 µM. Further, on human beta2-adrenoceptor, the Kd is 0.162 µM.

`Nc1ccc(C(=O)NCCNCC(O)COc2ccc(OCCOC3CCCC3)cc2)cc1` (stereo not drawn) [62d]: the melting point lay within 67 to 69 °C. In addition, the Kd at beta1-adrenoceptor was 0.0138 µM. Moreover, on human beta2-adrenoceptor, the Kd was 5.5 µM.

`Cc1ccccc1CC(=O)NCCNCC(O)COc1ccc(OCCOC2CCCC2)cc1` (stereo not drawn) [62p] came in with a melting point of 119 to 120.5 °C. The Kd at beta1-adrenoceptor is 0.00955 µM. The Kd on human beta2-adrenoceptor was 0.0724 µM.

With `O=C(Cc1cccc(C(F)(F)F)c1)NCCNCC(O)COc1ccc(OCCOC2CCCC2)cc1` (stereo not drawn) [62n], the melting point fell in the range of 111.5 to 112.5 °C. The dissociation constant (Kd) at beta1-adrenoceptor was 0.0132 µM. Moreover, the Kd on human beta2-adrenoceptor is 0.2 µM.

Take `O=C(Cc1cccc(O)c1)NCCNCC(O)COc1ccc(OCCOC2CCCC2)cc1` (stereo not drawn) [54j, N-(2-(3-(4-(2-(cyclopentyloxy)ethoxy)phenoxy)-2-hydroxypropylamino)ethyl)-2-(3-hydroxyphenyl)acetamide]: the Kd on beta1-adrenoceptor was 0.00372 µM; at human beta2-adrenoceptor it was 0.0155 µM; on human beta3-adrenoceptor, 2.51 µM.

Regarding `O=C(NCCNCC(O)COc1ccc(OCCOCC2CC2)cc1)Nc1cccc(Cl)c1` (stereo not drawn) [46e, 1-(2-(3-(4-(2-(Cyclopropylmethoxy)ethoxy)phenoxy)-2-hydroxypropylamino)ethyl)-3-(3-chlorophenyl)urea hydroformate], the Kd is 0.0295 µM at beta1-adrenoceptor, 5.75 µM at human beta2-adrenoceptor and 8.51 µM at human beta3-adrenoceptor.

Regarding `O=C(NCCNCC(O)COc1ccc(OCCOC2CCCC2)cc1)Nc1ccc(O)c(F)c1` (stereo not drawn) [compound 54, 1-(2-(3-(4-(2-(Cyclopentyloxy)ethoxy)phenoxy)-2-hydroxypropylamino)ethyl)-3-(3-fluoro-4-hydroxyphenyl)urea Hydroformate], the dissociation constant (Kd) is 0.00851 µM at beta1-adrenoceptor, 2.57 µM at human beta2-adrenoceptor and 10.2 µM at human beta3-adrenoceptor.

The molecule `Cc1ccc(CC(=O)NCCNCC(O)COc2ccc(OCCOC3CCCC3)cc2)cc1` (stereo not drawn) [62r] had a melting point of 82 to 85 °C. Moreover, at beta1-adrenoceptor, the Kd is 0.0501 µM. Moreover, the Kd at human beta2-adrenoceptor is 0.776 µM.

In the case of `O=C(NCCNCC(O)COc1ccc(OCCOC2CCCC2)cc1)Nc1ccccc1Br` (stereo not drawn) [47n], at beta1-adrenoceptor, the “Beta 1 Log KD” value is reported as −7.11 ± 0.01. Also, the “Beta 2 Log KD” value at human beta2-adrenoceptor was −6.10 ± 0.03. At human beta3-adrenoceptor, the Kd is 14.8 µM.

As for `N#Cc1cc(OCCOCC2CC2)ccc1OCC(O)CNCCNC(=O)Nc1ccc(O)cc1` (stereo not drawn) [LK204-545], the “Beta 2 Log KD” value on human beta2-adrenoceptor is −5.20 ± 0.03. Moreover, the “Beta 3 Log KD” value at human beta3-adrenoceptor is −4.62 ± 0.09.

`O=C(Cc1ccc(O)cc1)NCCNCC(O)COc1ccc(OCCOC2CCCC2)cc1` (stereo not drawn) [62v]: the melting point was 127.5 to 130 °C. Besides, the Kd at beta1-adrenoceptor was 0.00537 µM. Besides, the Kd at human beta2-adrenoceptor was 0.251 µM.

`O=C(Cc1ccccc1C(F)(F)F)NCCNCC(O)COc1ccc(OCCOC2CCCC2)cc1` (stereo not drawn) [62m] returned a melting point of 120.5 to 121.5 °C. Besides, the Kd at beta1-adrenoceptor is 0.00955 µM. In addition, the Kd at human beta2-adrenoceptor is 0.126 µM.

Molecule `COc1cccc(CC(=O)NCCNCC(O)COc2ccc(OCCOC3CCCC3)cc2)c1` (stereo not drawn) [62s] registered a melting point of 110 to 113 °C. The Kd at beta1-adrenoceptor was 0.0107 µM. Besides, the Kd at human beta2-adrenoceptor was 0.0537 µM.

For `O=C(NCCNCC(O)COc1ccc(OCCOC2CCCC2)cc1)Nc1ccccc1O` (stereo not drawn) [47t, 1-(2-(3-(4-(2-(Cyclopentyloxy)ethoxy)phenoxy)-2-hydroxypropylamino)ethyl)-3-(2-hydroxyphenyl)urea], on beta1-adrenoceptor, the “Beta 1 Log KD” value is listed as −6.99 ± 0.08. Moreover, the Kd at human beta3-adrenoceptor is 3.98 µM.

With `O=C(Cc1ccc(F)cc1)NCCNCC(O)COc1ccc(OCCOC2CCCC2)cc1` (stereo not drawn) [62i], the melting point fell in the range of 114.5 to 115.5 °C. Further, the Kd at beta1-adrenoceptor was 0.00776 µM. Also, at human beta2-adrenoceptor, the Kd is 0.178 µM.

Regarding `O=C(Cc1cccc(Cl)c1)NCCNCC(O)COc1ccc(OCCOC2CCCC2)cc1` (stereo not drawn) [62k], the melting point lay in the range of 117 to 118 °C. Moreover, at beta1-adrenoceptor, the Kd was 0.00692 µM. For the same molecule, the Kd at human beta2-adrenoceptor was 0.135 µM.

`O=C(Cc1ccccc1F)NCCNCC(O)COc1ccc(OCCOC2CCCC2)cc1` (stereo not drawn) [62g] yielded a melting point of 122 to 124 °C. The Kd at beta1-adrenoceptor was 0.0024 µM. Also, the Kd at human beta2-adrenoceptor is 0.0977 µM.

As to `O=C(Cc1ccc(C(F)(F)F)cc1)NCCNCC(O)COc1ccc(OCCOC2CCCC2)cc1` (stereo not drawn) [62o], the melting point lay in the range of 132 to 133 °C. Further, the Kd on beta1-adrenoceptor is 0.00912 µM. The Kd at human beta2-adrenoceptor is 0.214 µM.

`Nc1ccccc1C(=O)NCCNCC(O)COc1ccc(OCCOC2CCCC2)cc1` (stereo not drawn) [62b]: the melting point was 107 to 109 °C. Moreover, on beta1-adrenoceptor, the Kd was 0.0178 µM. Further, the Kd on human beta2-adrenoceptor was 0.309 µM.

For the molecule `O=C(Cc1cccc(F)c1)NCCNCC(O)COc1ccc(OCCOC2CCCC2)cc1` (stereo not drawn) [62h], the melting point lay in the range of 116.5 to 118 °C. At beta1-adrenoceptor, the Kd is 0.00676 µM. For the same molecule, the Kd at human beta2-adrenoceptor is 0.11 µM.

Broadly, the Kd is a measure of binding affinity in units of concentration. The term melting point denotes the temperature of the solid-liquid transition.
